Test results taken from US11130960B2, “Methods for conferring or enhancing herbicide resistance on plants and/or alga with protoporphyrinogen oxidase variants” (FARM HANNONG CO., LTD., priority 2014, dated 2021).

What was measured:
Assay in all cases: Seed germination / growth on ½ MS medium containing herbicide
[1] = tested on: wild-type Arabidopsis thaliana (Col-0); type: in vivo; conditions: ½ MS medium with 70 nM Tiafenacil, 50 uM glufosinate, or 70 nM Tiafenacil and 50 uM glufosinate
Procedure: (§1) To examine tiafenacil resistance of T2 generation seeds which survived under treatment of 1 μM tiafenacil, among the CyPPO2 and CyPPO8 transformants, Arabidopsis thaliana seeds were sown in ½ MS medium (1.125 g/L of MS salt, 10 g/L of sucrose, 7 g/L of Agar) containing 70 nM tiafenacil. […] Therefore, survival under 70 nM tiafenacil means that a plant has resistance against tiafenacil.
(§2) In Arabidopsis thaliana transformant including CyPPO2 or CyPPO8 gene, which was obtained by transformation using the plant transformation vector prepared in Example 6, the PPO activity-inhibiting herbicide-resistant gene and glufosinate-resistant gene are expressed at the same time. Therefore, it was examined whether cross-treatment of Arabidopsis thaliana transformant with two herbicides, namely, PPO activity-inhibiting herbicide and glufosinate is effective for weed control. To this end, seeds of CyPPO2 and BAR gene-inserted Arabidopsis thaliana transformant, or CyPPO8 and BAR gene-inserted Arabidopsis thaliana transformant were sterilized and treated at low temperature of 4° C. for 2 days. The seeds were sown in a ½ MS medium (Duchefa), a ½MS medium containing 70 nM Tiafenacil, a ½MS medium containing 50 uM glufosinate, or a ½MS medium containing 70 nM Tiafenacil and 50 uM glufosinate, and grown at 23° C. under 16 hour-light/8 hour-dark conditions for 7-14 days. Arabidopsis thaliana on the herbicide media was CyPPO2 or CyPPO8-transformed seed and the wild-type Col0 as a control, respectively. The transformant and the control were cultured on herbicide media. After 2 weeks, they were examined.
(§3) In Example 9, it was confirmed that Arabidopsis thaliana transformant prepared in the present invention has resistance against the two PPO-based herbicides, Tiafenacil and Saflufenacil at the same time, and therefore, it was tested whether the cross-treatment of Arabidopsis thaliana transformant with Tiafenacil and Saflufenacil is effective for weed control. To this end, seeds of CyPPO2 or CyPPO8 gene-inserted Arabidopsis thaliana transformant were sterilized and treated at low temperature of 4° C. for 2 days. The seeds were sown in a ½ MS medium, a ½MS medium containing 70 nM Tiafenacil, a ½MS medium containing 70 nM Saflufenacil, or a ½MS medium containing 35 nM Tiafenacil and 35 nM Saflufenacil, and grown at 23° C. under 16 hour-light/8 hour-dark conditions for 7-14 days. Arabidopsis thaliana on the herbicide media was CyPPO2 or CyPPO8-transformed seed and the wild-type Col0 as a control, respectively. The transformant and the control were cultured on herbicide media. After 2 weeks, they were examined.

CyPPO2 transformants = type: in vivo, Arabidopsis thaliana; conditions: CyPPO2 and BAR gene-inserted; ½ MS medium with 70 nM Tiafenacil, 50 uM glufosinate, or both
Procedure: as §1, §2, §3

CyPPO8 transformants = type: in vivo, Arabidopsis thaliana; conditions: CyPPO8 and BAR gene-inserted; ½ MS medium with 70 nM Tiafenacil, 50 uM glufosinate, or both
Procedure: as §1, §2, §3

In the case of CP(=O)(O)CCC(N)C(=O)O (stereo not drawn) [glufosinate], the “germination / growth on herbicide medium after 2 weeks” value (“germination / growth” below) [1] is reported as “not germinated”, the “germination / growth” value (CyPPO2 transformants) is reported as “normally grew” and the “germination / growth” value (CyPPO8 transformants) is reported as “normally grew”.
